{
  "source": "patent US12030912B2",
  "about": "“Cationic steroidal antimicrobial compounds with urethane linkages” (Brigham Young University, priority 2020, dated 2024)",
  "key": {"[1]": {"tested_on": "Pseudomonas aeruginosa (PA01 47085)", "assay": "Minimum inhibitory concentration (MIC), antimicrobial activity", "type": "cell-based", "conditions": "Pathogen PA01 47085", "experimental": "(§1) The antimicrobial activity of CSA-255 was determined in comparison to CSA-44, a CSA compound known to have very high antimicrobial activity compared to other CSAs. The microbes used in the comparative test was were methicillin resistant Staphylococcus aureus (MRSA) BAA-41 and Pseudomonas aeruginosa (PA01 47085)."}, "[2]": {"tested_on": "methicillin resistant Staphylococcus aureus (MRSA) BAA-41", "assay": "Minimum inhibitory concentration (MIC), antimicrobial activity", "type": "cell-based", "conditions": "Pathogen MRSA BAA-41", "experimental": "as §1"}},
  "note": "Like-named read-outs stand apart in the source and are kept apart here.",
  "data": [
    {"smiles": "CCCCCCCCOC(=O)CC[C@@H](C)[C@H]1CC[C@H]2[C@@H]3[C@H](OC(=O)CCN)C[C@@H]4C[C@H](OC(=O)CCN)CC[C@]4(C)[C@H]3C[C@H](OC(=O)CCN)[C@]12C", "note": "[CSA-44]", "values": [
      {"measurement": "MIC", "setting": "[1]", "result": 2, "unit": "µg/mL"},
      {"measurement": "MIC", "setting": "[2]", "result": 2, "unit": "µg/mL"}
    ]},
    {"smiles": "CCCCCCCCNC(=O)CC[C@@H](C)[C@H]1CC[C@H]2[C@@H]3[C@H](OC(=O)NCCN)C[C@@H]4C[C@H](OC(=O)NCCN)CC[C@]4(C)[C@H]3C[C@H](OC(=O)NCCN)[C@]12C", "note": "[CSA-255]", "values": [
      {"measurement": "MIC", "setting": "[1]; Pseudomonas aeruginosa, read-out: MIC", "result": 2, "unit": "µg/mL"},
      {"measurement": "MIC", "setting": "[2]; Staphylococcus aureus, read-out: MIC", "result": 4, "unit": "µg/mL"}
    ]}
  ]
}
